Laboratory results: PMC8708491 (Vaccines, 2021)
Blank lines part the entries; values can stand above or below the substance they belong to. Where no end group is shown, it is not given here.

Columns and labels:
endo-proteinase Glu-C V8 = endo-proteinase Glu-C V8 (Staphylococcus aureus, UniProt P0C1U8); details: 100 mM Tris-HCl pH 7.8 (carbonate buffer in Figure 6); 0.5 mg/mL; read-out HPLC (fragment MOG37–55 at 13.55 min), MS and UPLC-MS/MS
Experimental: This cleavage experiment aimed to identify fragment MOG37–55 by HPLC analysis. […] In particular, endo-proteinase Glu-C V8, a proteolytic serine, sequencing grade from Staphylococcus aureus V8, (Roche, lot no. 32228800) was used. This enzyme acts at the carboxylic acid of the Glu amino acid. […] The same experiment of enzymatic hydrolysis with a glutamate enzyme was also carried out with oxidized mannan–(KG)5-MOG35–55 conjugate.

[1] = Polarity by reversed-phase HPLC retention; format: physicochemical; details: chromatographic, RP-18 (C18) column, gradient 5–100% AcN in 30 min, 0.08% TFA, 214 nm
Experimental: Figure 8 HPLC analysis of peptide (KG)5-MOG35–55 (214 nm) and oxidized mannan–(KG)5-MOG35–55. HPLC analysis of (A) (KG)5-MOG35–55 and (B) oxidized mannan–(KG)5-MOG35–55 solution after 3 years (214 nm) showing the stability of the conjugate. […] The oxidized mannan–(KG)5-MOG35–55 conjugate was very polar, and it appeared at an earlier retention time compared to the less polar (KG)5-MOG35–55 peptide. The HPLC method used: gradient 5–100% AcN in 30 min.

[2] = tested on: endo-proteinase Glu-C V8, sequencing grade from Staphylococcus aureus V8; test: endo-proteinase Glu-C V8 in 100 mM Tris-HCL, pH 7.8
[3] = tested on: patients with secondary progressive MS; details: cited from earlier work
Experimental: The study was performed for the first time using a peptide epitope on patients with secondary progressive MS (MAESTRO-01 study).

adenocarcinoma patients = details: cited from earlier work
Description: We have shown that mannan, a poly-mannose carbohydrate isolated from the cell wall of yeast when conjugated to cancer proteins, induces Th1 or Th2 immune responses depending on the mode of conjugation and has therapeutic benefits against cancer when conjugated to peptides, proteins, and DNA. […] In addition, mannan has the added advantage, as it stimulates dendritic cells via Toll-like receptor 4. In MS, mannan conjugated to linear o ...

[4] = old lab batches kept at 5 ± 3 °C since 2014; HPLC (data not shown)
Experimental: We used a Waters 2695 HPLC (Alliance) system using a photodiode array detector. A Lichrosorb RP-18 reversed-phase analytical column (C18 […], 4.6 × 50 mm PIN 186003034). […] The reaction of oxidized mannan with a (KG)5-MOG35–55 peptide was monitored by HPLC. […] The samples were kept for 3 years and assessed by HPLC for stability.
The stability of the oxidized mannan–(KG)5-MOG35–55 conjugate was analyzed after 3 years of storage.

[5] = tested on: experimental autoimmune encephalomyelitis (EAE); details: cited from earlier work
Description: Several biological studies, including in vitro and in vivo assays, have been carried out to evaluate the effects of mannan–myelin peptide conjugates. […] In another study, mannan–MOG35–55 reversed experimental autoimmune encephalomyelitis, inducing a pe ...

CD4 T cells = details: cited from earlier work
Description: The induction of immunological tolerance through the action of dendritic cells is a newly introduced strategy for the treatment of MS. Peripheral blood mononuclear cells (PBMCs) were isolated from patients with relapsing-remitting (RR-MS) and age- and sex-matched healthy individuals (controls).

[6] = another study, wording is the title of ref 20
[7] = compared to EAE controls, 19 (wording matches ref 30)

Substance: (KG)5-MOG35–55: peptide MOG35–55 synthesized with (KG)5 at its N-terminus (MEVGWYRSPFSRVVHLYRNGK; N-terminal (KG)5 linker; UniProt Q61885 63-83, looked up, fragment)
- Cleavage by endo-proteinase Glu-C (endo-proteinase Glu-C V8): cleavage of the peptide
- Polarity from HPLC retention time [1]: less polar

- cleaved bond [2]: Glu36-Val37
Substance: KGKGKGKGKGMEVGWYRPPFSRVVHLYRNGK

Substance: MBP82–98: myelin basic protein epitope peptide clinically tested in phases I, II and III (PADPGSRPHLIRLFSRD; dirucotide; UniProt P02686 82-98, looked up, fragment)
- Safety in clinical trials ([3]; phases I, II and III): safe
- Efficacy in clinical trial ([3]; secondary progressive MS, MAESTRO-01 study, trial suspended): lack of efficacy

Substance: mannan conjugated to MUC1 protein: mannan conjugated to MUC1 cancer protein, tested in humans
- Clinical responses (adenocarcinoma patients; adenocarcinoma patients): clinical responses
- Cancer recurrence (adenocarcinoma patients; in humans): protection against cancer recurrence
- Immune responses (adenocarcinoma patients; in humans): induces immune responses

Substance: oxidized mannan–(KG)5-MOG35–55: MOG35–55 peptide conjugated to oxidized mannan via the (KG)5 linker at its N-terminus (KGKGKGKGKGMEVGWYRSPFSRVVHLYRNGK; also: conjugated to oxidized mannan via Schiff base on linker lysine side chains; UniProt Q61885 63-83, looked up, fragment)
- Stability of the conjugate: fragmentation or detachment [4]: did not show any signs of fragmentation or detachment
- Cleavage by endo-proteinase Glu-C (endo-proteinase Glu-C V8): cleavage of peptide sequence between amino acids Glu(36) and Val(37)
- Polarity from HPLC retention time [1]: very polar
- Development of neurological symptoms and inflammatory demyelinating spinal cord lesions ([5]; EAE models, peptide conjugated to oxidized mannan via (KG)5, earlier study, no reference given): inhibit
- Axons in spinal cord lesions [5, 6]: preserved
- CNS inflammation [5, 6]: reduced
- Effect on experimental autoimmune encephalomyelitis [5, 6]: reversed
- Peripheral myeloid response [5, 6]: inducing a peripheral type 2 myeloid response
- Antigen-specific T-cell proliferation [5, 7]: reduced
- Th1, Th17, and regulatory T-cell differentiation or T-cell apoptosis [5, 7]: no alterations
- Protection in EAE ([5]; therapeutic and prophylactic models, 19 (no reference at the sentence; wording matches ref 30)): showed protection
- Activation levels of CD4 T cells (CD4 T cells; co-cultures with tolerogenic DCs presenting the conjugate, PBMCs from RR-MS patients and healthy controls): Inhibition of activation
- T-cell tolerance (CD4 T cells; tolerogenic DCs loaded with the conjugate, generated in vitro): induce T-cell tolerance
